This passage reports TGI and GI50 results from PubChem BioAssay (NCI).

Each structure is given as a SMILES string. “And” between values parts separate entries of the source, which are not always exact repeats. Equal entries are not always repeated.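 Cells were grown in 96-well plates and exposed to each compound for 48 hours at five concentrations; endpoints were interpolated linearly between bracketing concentrations, or set to the highest concentration if not reached. GI50 marks 50% less growth. TGI denotes the concentration required for complete inhibition of growth.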 Where only a bound is given, the exact number is not on record here.

One assay has as its system SF-268 CNS. Kind of assay: NCI tumour cell line growth inhibition, 48 h.
Consider `Cc1c(C2=C(Br)C(=O)N(C)C2=O)c(=O)n(C)c(=O)n1C`, for which the TGI was above 100 µM.

Take `N#CC(=NCCO)C1=C(O)c2ccccc2C1=O`: the TGI is above 100 µM.

As to `NC(CS/C(Cl)=C/Cl)C(=O)O` (centres undefined), the GI50 is above 76.5 µM and the TGI is above 100 µM.

In the case of `O=C(Nc1ccc(CO)cc1)c1coc2ccccc2c1=O`, the GI50 is above 100 µM and the TGI was above 100 µM.

Turning to `Cc1cc(N/N=C/c2nc(-c3ccc(Br)cc3)oc2C)c2cc(Br)ccc2n1`, the GI50 is 6.89 µM and the TGI was found to be 46.2 µM.

On to `CC(=O)/C=C/c1ccc(C#Cc2ccccc2)s1`, for which the GI50 was 17.4 µM and the TGI is 48.9 µM.

For `COc1ccc2c(c1)C(C)Cc1c(ncnc1-n1c(C)nc3ccccc31)N2C` (centres undefined), the GI50 is 11.5 µM and the TGI is 39.7 µM.

For the compound `CC(C)OC(=O)NNc1cc(Cl)ccc1Cl`, the TGI was above 100 µM.

`COc1ccc2[nH]c3c4c(ccc3c2c1)C(=O)C=CC4=O` showed a TGI of 36.1 µM.

On to `COc1ccc2c(O)cc3c(c2c1)[C@H](CCl)CN3C(=O)c1cc2cc(NC(=O)CCN3CCOCC3)ccc2[se]1`, for which the GI50 was below 0.001 µM and the TGI was 0.0946 µM.

Take `COc1cc2c(cc1O)C1Cc3ccc(OC)c(O)c3C(C2)N1C` (centres undefined): the TGI was above 100 µM.

Take `CCOC(=O)CNC(=O)c1ccccc1Nc1ccnc(C(F)(F)F)c1`: the GI50 is 35.7 µM and the TGI is above 71.6 µM.

`COc1ccc2c(c1)[C@@]13CCCC[C@H]1[C@@H](C2)N(C)CC3=O` showed a TGI of 35.8 µM.

With `COc1cccc(/C(COc2ccc3c(c2)oc(=O)c2cc(OC)ccc23)=N/O)c1`, the GI50 is 9.58 µM and the TGI was above 100 µM.

`N=C(N)SCc1cccc(-c2nc3ccccc3c(=O)o2)c1` showed a TGI above 100 µM.

As to `COc1cc2c(c(OC)n1)[C@]1(O)[C@H](O)[C@H](CN(C)C)[C@@H](c3ccccc3)[C@]1(c1ccc(C#N)cc1)O2`, the GI50 was 0.0249 µM and 0.0148 µM; the TGI is 2.02 µM and 1.85 µM.

In turn, `C=CCSS/C=C/CS(=O)CC=C` (centres undefined) had a TGI of 60.7 µM.

For the compound `Cc1cc2c(cc1Cl)SC(=Nc1ccc(Cl)cc1)N(S(=O)(=O)c1ccccc1)S2(=O)=O`, the GI50 is 13.8 µM and the TGI stood at 34.8 µM.

For a further assay, the system named is SF-295 CNS. Kind of assay: NCI tumour cell line growth inhibition, 48 h.
In turn, `Cc1c(C2=C(Br)C(=O)N(C)C2=O)c(=O)n(C)c(=O)n1C` came in with a TGI above 100 µM.

`N#CC(=NCCO)C1=C(O)c2ccccc2C1=O`: the TGI was above 100 µM.

For the compound `NC(CS/C(Cl)=C/Cl)C(=O)O` (centres undefined), the GI50 was 3.17 µM and the TGI is 12.3 µM.

On to `O=C(Nc1ccc(CO)cc1)c1coc2ccccc2c1=O`, for which the GI50 was 65.6 µM and the TGI is above 100 µM.

As for `Cc1cc(N/N=C/c2nc(-c3ccc(Br)cc3)oc2C)c2cc(Br)ccc2n1`, the GI50 was 17.3 µM and the TGI came to 32.6 µM.

On to `CC(=O)/C=C/c1ccc(C#Cc2ccccc2)s1`, for which the GI50 was 19.1 µM and the TGI is 42.7 µM.

Take `COc1ccc2c(c1)C(C)Cc1c(ncnc1-n1c(C)nc3ccccc31)N2C` (centres undefined): the GI50 is 1.79 µM and the TGI amounted to 7.85 µM.

The compound `CC(C)OC(=O)NNc1cc(Cl)ccc1Cl` came in with a TGI above 100 µM.

With `COc1ccc2[nH]c3c4c(ccc3c2c1)C(=O)C=CC4=O`, the TGI worked out at 53.9 µM.

As for `COc1ccc2c(O)cc3c(c2c1)[C@H](CCl)CN3C(=O)c1cc2cc(NC(=O)CCN3CCOCC3)ccc2[se]1`, the GI50 is below 0.001 µM and the TGI is below 0.001 µM.

In the case of `COc1cc2c(cc1O)C1Cc3ccc(OC)c(O)c3C(C2)N1C` (centres undefined), the TGI is above 100 µM.

On to `CCOC(=O)CNC(=O)c1ccccc1Nc1ccnc(C(F)(F)F)c1`, for which the GI50 was 54.4 µM and the TGI was above 100 µM.

The compound `COc1ccc2c(c1)[C@@]13CCCC[C@H]1[C@@H](C2)N(C)CC3=O` registered a TGI above 100 µM.

On to `COc1cccc(/C(COc2ccc3c(c2)oc(=O)c2cc(OC)ccc23)=N/O)c1`, for which the GI50 was 8.22 µM and the TGI is above 100 µM.

Regarding `N=C(N)SCc1cccc(-c2nc3ccccc3c(=O)o2)c1`, the TGI is above 100 µM.

As for `COc1cc2c(c(OC)n1)[C@]1(O)[C@H](O)[C@H](CN(C)C)[C@@H](c3ccccc3)[C@]1(c1ccc(C#N)cc1)O2`, the GI50 was 0.0212 µM and 0.0231 µM; the TGI was 0.811 µM and 1.84 µM.

Compound `C=CCSS/C=C/CS(=O)CC=C` (centres undefined) returned a TGI above 100 µM.

As to `Cc1cc2c(cc1Cl)SC(=Nc1ccc(Cl)cc1)N(S(=O)(=O)c1ccccc1)S2(=O)=O`, the GI50 is 13.2 µM and the TGI was 32.6 µM.

A further assay relates to SK-MEL-28 melanoma. Description: NCI tumour cell line growth inhibition, 48 h.
`Cc1c(C2=C(Br)C(=O)N(C)C2=O)c(=O)n(C)c(=O)n1C` returned a TGI above 100 µM.

Regarding `N#CC(=NCCO)C1=C(O)c2ccccc2C1=O`, the TGI is above 100 µM.

`NC(CS/C(Cl)=C/Cl)C(=O)O` (centres undefined): the GI50 is 43.6 µM and the TGI is above 100 µM.

In the case of `O=C(Nc1ccc(CO)cc1)c1coc2ccccc2c1=O`, the GI50 is above 100 µM and the TGI is above 100 µM.

Regarding `Cc1cc(N/N=C/c2nc(-c3ccc(Br)cc3)oc2C)c2cc(Br)ccc2n1`, the GI50 is 2.39 µM and the TGI was 6.26 µM.

As for `CC(=O)/C=C/c1ccc(C#Cc2ccccc2)s1`, the GI50 was 15.5 µM and the TGI stood at 28.8 µM.

Regarding `COc1ccc2c(c1)C(C)Cc1c(ncnc1-n1c(C)nc3ccccc31)N2C` (centres undefined), the GI50 is 11.1 µM and the TGI came to 26.2 µM.

Turning to `CC(C)OC(=O)NNc1cc(Cl)ccc1Cl`, the TGI was above 100 µM.
